The target in one assay is Cbl-b (Homo sapiens (Human), UniProt Q13191). Briefly: Cbl-b LCK Ub TR-FRET assay (Cbl-b Lck HTRF). Type of assay: biochemical. The note with it: for IC50: Cbl-b LCK Ub TR-FRET; for fold-selectivity (Cbl-b over C-cbl): ratio C-cbl Lck HTRF IC50 / Cbl-b Lck HTRF IC50. The method, boiled down:
(§1)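 Detection reagents added, brief spin, 20 min RT. IC50 fit normalized to no-LCK (low) and DMSO (high) controls.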

The target in the next assay is c-Cbl (Homo sapiens (Human), UniProt P22681). The assay is described as follows: C-Cbl LCK Ub TR-FRET assay (C-cbl Lck HTRF). Type of assay: biochemical. The method, boiled down: as §1
Chain of c-Cbl (P22681 47-435): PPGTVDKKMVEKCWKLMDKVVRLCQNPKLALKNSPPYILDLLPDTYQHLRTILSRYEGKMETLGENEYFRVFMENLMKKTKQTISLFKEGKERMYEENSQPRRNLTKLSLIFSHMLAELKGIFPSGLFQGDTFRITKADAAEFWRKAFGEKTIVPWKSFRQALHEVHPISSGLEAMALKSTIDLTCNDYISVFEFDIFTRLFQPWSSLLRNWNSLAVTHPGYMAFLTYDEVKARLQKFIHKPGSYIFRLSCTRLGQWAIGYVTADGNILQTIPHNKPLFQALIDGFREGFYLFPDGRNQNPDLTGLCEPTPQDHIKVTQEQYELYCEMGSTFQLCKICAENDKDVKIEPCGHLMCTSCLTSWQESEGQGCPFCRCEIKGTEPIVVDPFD
For assay [1], the target named is Human Cbl-b (residues 40-426) (Homo sapiens (Human), UniProt Q13191). Briefly: Cbl-b SPR assay. The format is binding. The note with it: for Fold of selectivity: C-cbl SPR Kd vs Cbl-b SPR Kd; for Kd: SPR, 20° C. Summed up: (§2)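 Captured protein (1300-1500 RU for both isoforms) was probed in multi-cycle kinetics with 6 concentrations in 2-fold dilution, 60 s contact, 40 μl/min, dissociation 120-1200 s, double-referenced. Kinetic and affinity parameters came from a 1:1 binding fit. For slow off-rates, kd was set independently by a chaser-based method.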
Chain of Human Cbl-b (residues 40-426) (Q13191 40-426): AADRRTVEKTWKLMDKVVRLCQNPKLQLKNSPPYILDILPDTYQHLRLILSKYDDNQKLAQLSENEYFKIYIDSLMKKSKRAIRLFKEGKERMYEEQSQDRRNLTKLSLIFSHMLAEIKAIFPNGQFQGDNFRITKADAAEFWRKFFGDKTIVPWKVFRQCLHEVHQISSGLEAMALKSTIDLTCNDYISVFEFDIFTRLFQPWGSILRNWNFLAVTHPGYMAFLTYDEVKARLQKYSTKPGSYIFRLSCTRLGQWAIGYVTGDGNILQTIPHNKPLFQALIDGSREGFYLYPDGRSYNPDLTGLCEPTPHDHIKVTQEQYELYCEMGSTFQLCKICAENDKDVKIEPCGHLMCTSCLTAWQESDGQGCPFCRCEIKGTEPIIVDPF

A further assay deals with c-Cbl (residues 47-435) (Homo sapiens (Human), UniProt P22681). Briefly: c-Cbl SPR assay. The format is binding. The note with it: 20° C. Summed up:
as §2

Chain of c-Cbl (residues 47-435) (P22681 47-435): as the sequence (P22681 47-435) above
Chain of Cbl-b (Q13191 40-426): as the sequence (Q13191 40-426) above

Consider `CO[C@H]1C[C@@](c2cccc(N3Cc4c(cc(CNC5(C)CCC5)cc4C(F)F)C3=O)c2)(c2nncn2C)C1` [Compound 116, 4-(difluoromethyl)-2-(3-((1s,3s)-3-methoxy-1-(4-methyl-4H-1,2,4-triazol-3-yl)cyclobutyl)phenyl)-6-(((1-methylcyclobutyl)amino)methyl)isoindolin-1-one], for which, on Cbl-b, the IC50 stood at 25 nM and the “fold-selectivity (Cbl-b over C-cbl)” value is on record as 6.0x. On c-Cbl, this molecule came in with an IC50 of 150 nM. Further, in assay [1], the Fold of selectivity amounted to 15× and binding was put at a Kd of 8.1 nM. This molecule also gave a Kd on c-Cbl (residues 47-435) of 110 nM.

On to `CO[C@H]1C[C@](c2cccc(N3Cc4c(cc(CNC5(C)CCC5)cc4C(F)F)C3=O)c2)(c2nncn2C)C1` [Compound 117, 4-(difluoromethyl)-2-(3-((1r,3r)-3-methoxy-1-(4-methyl-4H-1,2,4-triazol-3-yl)cyclobutyl)phenyl)-6-(((1-methylcyclobutyl)amino)methyl)isoindolin-1-one], for which, on Cbl-b, the IC50 was determined as 12 nM and the “fold-selectivity (Cbl-b over C-cbl)” value is recorded as 5.0x. Moreover, 60 nM corresponded to half-maximal inhibition against c-Cbl (IC50). Moreover, in assay [1], the Fold of selectivity worked out at 16× and the equilibrium dissociation constant (Kd) was 3.2 nM. At c-Cbl (residues 47-435), the Kd amounted to 53 nM.

As for `Cn1cnnc1[C@]1(c2cccc(N3Cc4c(cc(CNC5(C)CCC5)cc4C(F)(F)F)C3=O)c2)C[C@@](O)(C(F)(F)F)C1` [Compound 120, 2-(3-((1s,3s)-3-hydroxy-1-(4-methyl-4H-1,2,4-triazol-3-yl)-3-(trifluoromethyl)cyclobutyl)phenyl)-6-(((1-methylcyclobutyl)amino)methyl)-4-(trifluoromethyl)isoindolin-1-one], on Cbl-b, half-maximal inhibition (IC50) required 360 nM and the “fold-selectivity (Cbl-b over C-cbl)” value is reported as 4.8 x. The molecule further returned an IC50 against c-Cbl of 1800 nM. In assay [1], this molecule displayed a Fold of selectivity of 6.8× and a Kd of 180 nM. The molecule further displayed a Kd at c-Cbl (residues 47-435) of 1400 nM.

Take `C[C@H]1C[C@@](c2cccc(N3Cc4c(cc(CNC5(C)CCC5)cc4C(F)(F)F)C3=O)c2)(c2nncn2C)O1` [Compound 123, 2-(3-((2R,4S)-4-methyl-2-(4-methyl-4H-1,2,4-triazol-3-yl)oxetan-2-yl)phenyl)-6-(((1-methylcyclobutyl)amino)methyl)-4-(trifluoromethyl)isoindolin-1-one]: the 50% inhibitory concentration (IC50) against Cbl-b was found to be 68 nM; against c-Cbl, 230 nM. At Cbl-b, the “fold-selectivity (Cbl-b over C-cbl)” value was determined as 3.4x. In assay [1], this molecule displayed a Fold of selectivity of 6.1×. The dissociation constant Kd amounted to 21 nM in assay [1] and 130 nM on c-Cbl (residues 47-435).

With `C[C@@H]1C[C@@](c2cccc(N3Cc4c(cc(CNC5(C)CCC5)cc4C(F)(F)F)C3=O)c2)(c2nncn2C)O1` [Compound 124, 2-(3-((2R,4R)-4-methyl-2-(4-methyl-4H-1,2,4-triazol-3-yl)oxetan-2-yl)phenyl)-6-(((1-methylcyclobutyl)amino)methyl)-4-(trifluoromethyl)isoindolin-1-one], on Cbl-b, the 50% inhibitory concentration (IC50) is 56 nM and the “fold-selectivity (Cbl-b over C-cbl)” value was 1.9x. Besides, the concentration for half-maximal inhibition (IC50) against c-Cbl was determined as 100 nM. Besides, in assay [1], the Fold of selectivity was 3.9× and the Kd was found to be 17 nM. At c-Cbl (residues 47-435), this molecule gave a dissociation constant Kd of 67 nM.

Consider `C[C@H]1C[C@](c2cccc(N3Cc4c(cc(CNC5(C)CCC5)cc4C(F)(F)F)C3=O)c2)(c2nncn2C)O1` [Compound 125, 2-(3-((2S,4S)-4-methyl-2-(4-methyl-4H-1,2,4-triazol-3-yl)oxetan-2-yl)phenyl)-6-(((1-methylcyclobutyl)amino)methyl)-4-(trifluoromethyl)isoindolin-1-one], for which the IC50 against Cbl-b came to 410 nM; on c-Cbl it was 2300 nM. In addition, the “fold-selectivity (Cbl-b over C-cbl)” value at Cbl-b is on record as 5.7x. The molecule also gave a Fold of selectivity in assay [1] of 11×. Moreover, the Kd in assay [1] was 130 nM; at c-Cbl (residues 47-435), 1500 nM.

As for `C[C@@H]1C[C@](c2cccc(N3Cc4c(cc(CNC5(C)CCC5)cc4C(F)(F)F)C3=O)c2)(c2nncn2C)O1` [Compound 126, 2-(3-((2S,4R)-4-methyl-2-(4-methyl-4H-1,2,4-triazol-3-yl)oxetan-2-yl)phenyl)-6-(((1-methylcyclobutyl)amino)methyl)-4-(trifluoromethyl)isoindolin-1-one], on Cbl-b, it took 75 nM to reach half-maximal inhibition (IC50) and the “fold-selectivity (Cbl-b over C-cbl)” value came out at 3.4 x. Moreover, on c-Cbl, inhibition was half-maximal at 250 nM (IC50). In assay [1], this molecule gave a Fold of selectivity of 6.0× and an equilibrium dissociation constant (Kd) of 12 nM. The molecule also had a Kd at c-Cbl (residues 47-435) of 130 nM.

Regarding `Cl.Cn1cnnc1[C@]1(c2cccc(N3Cc4c(cc(CNC5(C)CCC5)cc4C(F)(F)F)C3=O)c2)C[C@@H](Cl)C1` [Compound 137, 2-(3-((1r,3r)-3-chloro-1-(4-methyl-4H-1,2,4-triazol-3-yl)cyclobutyl)phenyl)-6-(((1-methylcyclobutyl)amino)methyl)-4-(trifluoromethyl)isoindolin-1-one hydrochloride], on Cbl-b, half-maximal inhibition (IC50) was put at 6.1 nM and the “fold-selectivity (Cbl-b over C-cbl)” value is reported as 1.4x. This molecule also had a 50% inhibitory concentration (IC50) on c-Cbl of 8.5 nM. Also, in assay [1], the Fold of selectivity amounted to 8.4× and the Kd came out at 0.27 nM. For the same molecule, on c-Cbl (residues 47-435), the Kd worked out at 2.1 nM.

With `Cn1cnnc1[C@]1(c2cccc(N3Cc4c(cc(CNC5(C)CCC5)cc4C(F)(F)F)C3=O)c2)C[C@H](Cl)C1` [Compound 138, 2-(3-((1s,3s)-3-chloro-1-(4-methyl-4H-1,2,4-triazol-3-yl)cyclobutyl)phenyl)-6-(((1-methylcyclobutyl)amino)methyl)-4-(trifluoromethyl)isoindolin-1-one], the values for the IC50 on Cbl-b and against c-Cbl were 4.1 nM and 4.2 nM, respectively. Moreover, the “fold-selectivity (Cbl-b over C-cbl)” value at Cbl-b was 1.0x. Besides, the Fold of selectivity in assay [1] came out at 5.6×. The results for the Kd (in assay [1]; on c-Cbl (residues 47-435)) were 0.75 nM and 4.2 nM, respectively.

On to `Cn1cnnc1[C@H](c1cccc(N2Cc3c(cc(CNC4(C)CCC4)cc3C(F)(F)F)C2=O)c1)[C@H]1CCOC1` [Compound 169, 2-(3-((S)-(4-methyl-4H-1,2,4-triazol-3-yl)((R)-tetrahydrofuran-3-yl)methyl)phenyl)-6-(((1-methylcyclobutyl)amino)methyl)-4-(trifluoromethyl)isoindolin-1-one], for which the IC50 was determined as 72 nM against Cbl-b and 340 nM against c-Cbl. At Cbl-b, the “fold-selectivity (Cbl-b over C-cbl)” value worked out at 4.8x. This molecule had a Fold of selectivity in assay [1] of 2.7×. Further, the Kd in assay [1] was determined as 66 nM; on c-Cbl (residues 47-435) it was 180 nM.

For the molecule `Cn1cnnc1[C@]1(c2cc(NC3CCCC3)cc(N3Cc4c(cc(CNC5(C)CCC5)cc4C(F)(F)F)C3=O)c2)C[C@H](C)C1` [Compound 177, 2-(3-(cyclopentylamino)-5-((1s,3s)-3-methyl-1-(4-methyl-4H-1,2,4-triazol-3-yl)cyclobutyl)phenyl)-6-(((1-methylcyclobutyl)amino)methyl)-4-(trifluoromethyl)isoindolin-1-one], on Cbl-b, the IC50 turned out to be 59 nM and the “fold-selectivity (Cbl-b over C-cbl)” value turned out to be 2.8x. In addition, on c-Cbl, the IC50 is 180 nM. In addition, in assay [1], the Fold of selectivity is reported as 10× and the affinity, expressed as Kd, was 9.9 nM. Also, the Kd at c-Cbl (residues 47-435) is 99 nM.

Broadly, the IC50 is the concentration needed to halve the response being measured. Low values mean inhibition by little substance, high ones a need for much substance. Broadly, the Kd is a measure of binding affinity in units of concentration. A lower Kd goes with a tighter complex.

The values above are taken from US12187709B2 (Genentech, Inc., priority 2021, dated 2025).
